For this assay, the system named is CD2F1 mice, L1210 leukemia ip, survival T/C. Kind of assay: NCI In Vivo Anticancer Drug Screen. Data for tumor model L1210 Leukemia (intraperitoneal) in CD2F1 (CDF1) mice. The conditions noted are these: endpoint: mean survival time, higher = longer survival. The essentials:
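Antitumor effect is scored in animals hosting a serially transplanted tumor. Values compare compound-dosed animals against vehicle-only controls as a simple quotient.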

Where [1] appears, read: dose: 100.0 mg/kg/injection, schedule: Q04DX003 (ip), vehicle: saline with Tween-80.
Setting [2] is: dose: 200.0 mg/kg/injection, schedule: Q04DX003 (ip), vehicle: saline with Tween-80.
[3] abbreviates: dose: 12.5 mg/kg/injection, schedule: Q01DX009 (ip), vehicle: saline with Tween-80.
Setting [4] is: dose: 25.0 mg/kg/injection, schedule: Q01DX009 (ip), vehicle: saline with Tween-80.
The mark [5] stands for this setting: dose: 50.0 mg/kg/injection, schedule: Q01DX009 (ip), vehicle: saline with Tween-80.
The mark [6] stands for this setting: dose: 100.0 mg/kg/injection, schedule: Q01DX001 (ip), vehicle: saline with Tween-80.
The mark [7] stands for this setting: dose: 50.0 mg/kg/injection, schedule: Q01DX009 (ip), vehicle: Klucel (hydroxypropylcellulose) (HPC).
Where [8] appears, read: dose: 100.0 mg/kg/injection, schedule: Q01DX009 (ip), vehicle: Klucel (hydroxypropylcellulose) (HPC).
Where [9] appears, read: dose: 200.0 mg/kg/injection, schedule: Q01DX009 (ip), vehicle: Klucel (hydroxypropylcellulose) (HPC).
[10] abbreviates: dose: 100.0 mg/kg/injection, schedule: Q04DX003 (ip), vehicle: saline.
Where [11] appears, read: dose: 200.0 mg/kg/injection, schedule: Q01DX001 (ip), vehicle: saline with Tween-80.
[12] abbreviates: dose: 400.0 mg/kg/injection, schedule: Q01DX001 (ip), vehicle: saline with Tween-80.
Setting [13] is: dose: 100.0 mg/kg/injection, schedule: Q01DX009 (ip), vehicle: saline with Tween-80.
Setting [14] is: dose: 200.0 mg/kg/injection, schedule: Q01DX009 (ip), vehicle: saline with Tween-80.
The mark [15] stands for this setting: dose: 400.0 mg/kg/injection, schedule: Q01DX009 (ip), vehicle: saline with Tween-80.
[16] abbreviates: dose: 400.0 mg/kg/injection, schedule: Q04DX003 (ip), vehicle: saline with Tween-80.
Setting [17] is: dose: 12.5 mg/kg/injection, schedule: Q01DX009 (ip), vehicle: saline.
Setting [18] is: dose: 25.0 mg/kg/injection, schedule: Q01DX009 (ip), vehicle: saline.
[19] abbreviates: dose: 50.0 mg/kg/injection, schedule: Q04DX003 (ip), vehicle: saline.
Where [20] appears, read: dose: 200.0 mg/kg/injection, schedule: Q04DX003 (ip), vehicle: saline.

Structures are written as SMILES. “And” between values parts separate entries of the source, which are not always exact repeats. Identical values can stand only once. Toxic doses and inconclusive results are not listed.

Consider `O=CC1C(=O)N(c2ccccc2)c2ccccc21` (stereo unspecified), for which the T/C was 98 % of control (dose: 50.0 mg/kg/injection, schedule: Q04DX003 (ip), vehicle: Klucel (hydroxypropylcellulose) (HPC)); 106 % of control (dose: 100.0 mg/kg/injection, schedule: Q04DX003 (ip), vehicle: Klucel (hydroxypropylcellulose) (HPC)); 96 % of control (dose: 200.0 mg/kg/injection, schedule: Q04DX003 (ip), vehicle: Klucel (hydroxypropylcellulose) (HPC)).

As to `CO/C(=N\C(=O)NC1CC(OC(=O)c2ccc(C)cc2)C(COC(=O)c2ccc(C)cc2)O1)NC(=O)c1ccc(C)cc1` (stereo unspecified), the T/C under setting [1] was 90 % of control.

As to `Nc1ccc(N2CCNCC2)cc1`, the T/C under setting [1] was 104 % of control and the T/C under setting [2] was 101 % of control.

For `COc1cc(OC)c2c(O)c3c(c(-c4ccc5cc6c(c(O)c5c4O)C(=O)CC(C)(O)C6)c2c1)CC(C)OC3C` (stereo unspecified), the T/C (dose: 0.5 mg/kg/injection, schedule: Q01DX009 (ip), vehicle: Klucel (hydroxypropylcellulose) (HPC)) is 103 % of control; the T/C (dose: 1.0 mg/kg/injection, schedule: Q01DX009 (ip), vehicle: Klucel (hydroxypropylcellulose) (HPC)) is 100 % of control; the T/C (dose: 2.0 mg/kg/injection, schedule: Q01DX009 (ip), vehicle: Klucel (hydroxypropylcellulose) (HPC)) is 103 % of control.

`COC(COS(=O)(=O)c1ccc(Br)cc1)(c1ccccc1)c1ccccc1`: the T/C is, setting by setting: under setting [3], 95 % of control; under setting [4], 88 % of control; under setting [5], 88 % of control.

Take `O=C(O)COc1ccc(NC(=O)COc2ccccc2)cc1`: the T/C reads like this: (dose: 25.0 mg/kg/injection, schedule: Q01DX001 (ip), vehicle: saline with Tween-80) 100 % of control; (dose: 50.0 mg/kg/injection, schedule: Q01DX001 (ip), vehicle: saline with Tween-80) 97 % of control; under setting [6], 100 % of control.

Consider `CC(=O)N(C)N(Cc1ccc(C#N)cc1)C(C)=O`, for which the T/C is 97 % of control (dose: 25.0 mg/kg/injection, schedule: Q01DX009 (ip), vehicle: Klucel (hydroxypropylcellulose) (HPC)); 93 % of control under setting [7]; 97 % of control under setting [8]; 97 % of control under setting [9]; 98 % of control (dose: 400.0 mg/kg/injection, schedule: Q01DX009 (ip), vehicle: Klucel (hydroxypropylcellulose) (HPC)).

With `O=C1C(c2ccccc2)=[N+]([O-])[N+]([O-])=C1c1ccccc1`, the T/C is, setting by setting: under setting [7], 97 % of control; under setting [8], 97 % of control; under setting [9], 101 % of control.

Consider `Cc1nc2c(n1C)C(=O)c1ccccc1C2=O`, for which the T/C under setting [10] was 101 % of control.

For the molecule `O=C(/C=C/C(=N\Nc1ccccc1)c1ccccc1)c1ccccc1`, the T/C is, setting by setting: under setting [6], 96 % of control; under setting [11], 94 % of control; under setting [12], 97 % of control.

For `CCC1C(=O)NC(=O)NC1=O`, the T/C was 96 % of control under setting [13]; 98 % of control under setting [1]; 94 % of control under setting [14]; 94 % of control under setting [2]; 93 % of control under setting [15]; 96 % of control under setting [16].

For `CC1(C)N=C(N)N=C(N)N1c1ccc(OCC(=O)N2CCOCC2)c(Cl)c1`, the T/C reads like this: (dose: 6.25 mg/kg/injection, schedule: Q01DX009 (ip), vehicle: saline) 98 % of control; under setting [17], 97 % of control; under setting [18], 92 % of control; (dose: 50.0 mg/kg/injection, schedule: Q01DX009 (ip), vehicle: saline) 98 % of control; (dose: 100.0 mg/kg/injection, schedule: Q01DX009 (ip), vehicle: saline) 98 % of control.

`CC(=O)NC1C=CC(=O)O1` (stereo unspecified): the T/C was 121 % of control (dose: 18.75 mg/kg/injection, schedule: Q01DX001 (ip), vehicle: saline) and 119 % of control (dose: 37.5 mg/kg/injection, schedule: Q01DX001 (ip), vehicle: saline).

In the case of `Cc1nc(N)[nH]c(=O)c1NC(=O)c1ccccc1N`, the T/C runs as follows: under setting [6], 94 % of control; under setting [11], 87 % of control; under setting [12], 89 % of control.

On to `CCc1cc[c]([Sb](=[O])([OH])[OH])cc1`, for which the T/C by setting is: under setting [19], 89 % of control; under setting [10], 101 % of control; under setting [20], 101 % of control.

Take `O=S1(=O)C2CCC(C2)C1Cl` (stereo unspecified): under setting [1], the T/C is 88 % of control.

As for `Cc1nc2c(=O)n(C3OC(CO)C(O)C3O)cnc2o1` (stereo unspecified), under “dose: 100.0 mg/kg/injection, schedule: Q01DX005 (ip), vehicle: saline”, the T/C is 103 % of control.

Take `CN1C2CCC1CC(OC(=O)c1ccccc1)C2` (stereo unspecified): the T/C by setting is: (dose: 100.0 mg/kg/injection, schedule: Q04DX002 (ip), vehicle: Klucel (hydroxypropylcellulose) (HPC)) 121 % of control; (dose: 200.0 mg/kg/injection, schedule: Q04DX002 (ip), vehicle: Klucel (hydroxypropylcellulose) (HPC)) 90 % of control; (dose: 400.0 mg/kg/injection, schedule: Q04DX002 (ip), vehicle: Klucel (hydroxypropylcellulose) (HPC)) 100 % of control.

Turning to `CCCCN(CCCC)c1cc(C(C)=O)c2ccccc2n1`, the T/C runs as follows: under setting [19], 102 % of control; under setting [10], 102 % of control; under setting [20], 102 % of control.

`O=C(c1ccc([N+](=O)[O-])cc1)C(Br)C(Br)c1ccnc2ccccc12` (stereo unspecified): the T/C is, setting by setting: (dose: 12.5 mg/kg/injection, schedule: Q04DX003 (ip), vehicle: saline with Tween-80) 92 % of control; (dose: 25.0 mg/kg/injection, schedule: Q04DX003 (ip), vehicle: saline with Tween-80) 98 % of control; (dose: 50.0 mg/kg/injection, schedule: Q04DX003 (ip), vehicle: saline with Tween-80) 95 % of control.

Take `[CH3][Sn]([CH3])([Cl])[Cl]`: the T/C reads like this: (dose: 5.0 mg/kg/injection, schedule: Q01DX009 (ip), vehicle: saline) 106 % of control; (dose: 10.0 mg/kg/injection, schedule: Q01DX009 (ip), vehicle: saline) 98 % of control; (dose: 20.0 mg/kg/injection, schedule: Q01DX009 (ip), vehicle: saline) 95 % of control.

For `CC(Cc1ccc(O)cc1)NCC(O)c1ccc(O)c(O)c1` (stereo unspecified), the T/C is, setting by setting: under setting [3], 102 % of control and 104 % of control; under setting [4], 103 % of control and 104 % of control; under setting [5], 105 % of control and 111 % of control; under setting [13], 108 % of control and 111 % of control; under setting [14], 103 % of control and 111 % of control; under setting [15], 113 % of control and 112 % of control.

Consider `CCSC(=N)N`, for which the T/C is 94 % of control under setting [10]; 91 % of control under setting [20]; 97 % of control (dose: 400.0 mg/kg/injection, schedule: Q04DX003 (ip), vehicle: saline).

As to `C=C(COC(C)(C)C)CN(C)C`, the T/C reads like this: under setting [5], 98 % of control; under setting [13], 104 % of control.

As to `Cc1ccc(NC(=O)Nc2cccc(-n3cnc4c(=O)[nH]c(N)nc43)c2)cc1S(=O)(=O)F`, the T/C reads like this: under setting [6], 86 % of control; under setting [11], 88 % of control; under setting [12], 89 % of control.

As for `COC(/C=C\C(OC)OC)OC`, the T/C under setting [17] is 101 % of control and the T/C under setting [18] is 96 % of control.

On to `CCCCCCCCCCCCSS(=O)(=O)c1ccc(C)cc1`, for which the T/C by setting is: (dose: 100.0 mg/kg/injection, schedule: Q04DX003 (ip), vehicle: other) 95 % of control; (dose: 200.0 mg/kg/injection, schedule: Q04DX003 (ip), vehicle: other) 95 % of control; (dose: 400.0 mg/kg/injection, schedule: Q04DX003 (ip), vehicle: other) 95 % of control.

Turning to `Cc1n[nH]c2ccc([N+](=O)[O-])cc2c1=O`, the T/C under setting [13] is 89 % of control.

Turning to `C=C(C)CS(=O)(=O)Cc1ccccc1`, the T/C is, setting by setting: (dose: 50.0 mg/kg/injection, schedule: Q01DX001 (ip), vehicle: Klucel (hydroxypropylcellulose) (HPC)) 96 % of control; (dose: 100.0 mg/kg/injection, schedule: Q01DX001 (ip), vehicle: Klucel (hydroxypropylcellulose) (HPC)) 102 % of control; (dose: 200.0 mg/kg/injection, schedule: Q01DX001 (ip), vehicle: Klucel (hydroxypropylcellulose) (HPC)) 102 % of control.

Regarding `COC(=O)CCN(c1ccccc1)c1ccc(C)cc1`, the T/C by setting is: under setting [1], 97 % of control; under setting [2], 97 % of control; under setting [16], 97 % of control.
